Values after ≈ are worked out from the molar mass of the structure shown.

This note sets out measurements from ChEMBL document CHEMBL1139775, “A novel ketolide class: Synthesis and antibacterial activity of a lead compound” (2007).

Type in all cases: functional
Experiment [1] relates to Staphylococcus aureus. Put plainly: Antibacterial activity against erythromycin-sensitive Staphylococcus aureus ATCC 13709.
Experiment [2] concerns Staphylococcus aureus. In words: Antibacterial activity against […] MLSc.
Experiment [3] deals with Streptococcus pneumoniae. Put plainly: Antibacterial activity against erythromycin-sensitive Streptococcus pneumoniae.
The subject of experiment [4] is Streptococcus pneumoniae. In words: Antibacterial activity against Streptococcus pneumoniae 4636 MLSc.
Experiment [5] concerns Streptococcus pneumoniae. In words: Antibacterial activity against Streptococcus pneumoniae CI137 M.
Experiment [6] deals with Streptococcus pyogenes. In words: Antibacterial activity against erythromycin-sensitive Streptococcus pyogenes 3565.
Experiment [7] has as its system Streptococcus pyogenes. Put plainly: Antibacterial activity against Streptococcus pyogenes MLSi.
Experiment [8] concerns Streptococcus pyogenes. In words: Antibacterial activity against Streptococcus pyogenes M.
Experiment [9] relates to Moraxella catarrhalis. In words: Antibacterial activity against Moraxella catarrhalis ATCC 23246.
In experiment [10] the test system is Haemophilus influenzae. Put plainly: Antibacterial activity against Haemophilus influenzae ATCC 49247.
Experiment [11] relates to Escherichia coli. Put plainly: Antibacterial activity against Escherichia coli ATCC 25922.

Consider `CC[C@H]1OC(=O)[C@H](C)[C@@H](O[C@H]2C[C@@](C)(OC)[C@@H](O)[C@H](C)O2)[C@H](C)[C@@H](O[C@@H]2O[C@H](C)C[C@H](N(C)C)[C@H]2O)[C@](C)(OC)C[C@@H](C)C(=O)[C@H](C)[C@@H](O)[C@]1(C)O` [CLARITHROMYCIN], for which the MIC in experiment [1] is 0.25 µg/mL (≈ 0.334 µM); in [2] it was above 32 µg/mL; in experiment [3] it was at most 0.06 µg/mL; in experiment [4], above 128 µg/mL; in [5], 8 µg/mL (≈ 10.7 µM); in experiment [6] it was at most 0.06 µg/mL. In addition, the MIC was 2 µg/mL (≈ 2.67 µM) in experiment [7]; 2 µg/mL (≈ 2.67 µM) in experiment [8]; at most 0.25 µg/mL in experiment [9]; 8 µg/mL (≈ 10.7 µM) in experiment [10]; 64 µg/mL (≈ 85.6 µM) in experiment [11].
As to `CC[C@@H]1OC(=O)[C@H](C)C(=O)[C@H](C)[C@@H](O[C@@H]2O[C@H](C)C[C@H](N(C)C)[C@H]2O)[C@@](C)(OC)C[C@@H](C)C(=O)[C@H](C)[C@H]2CC(=O)O[C@]12C`, the MIC in experiment [1] was 0.5 µg/mL (≈ 0.817 µM); in experiment [2], above 128 µg/mL; in experiment [3], at most 0.06 µg/mL; in experiment [4], above 128 µg/mL; in experiment [5], 0.12 µg/mL (≈ 0.196 µM); in experiment [6], 0.12 µg/mL (≈ 0.196 µM). The MIC was 0.5 µg/mL (≈ 0.817 µM) in [7]; 0.12 µg/mL (≈ 0.196 µM) in [8]; 0.5 µg/mL (≈ 0.817 µM) in [9]; 16 µg/mL (≈ 26.2 µM) in experiment [10]; 128 µg/mL (≈ 209 µM) in experiment [11].
On to `CC[C@@H]1OC(=O)[C@H](C)C(=O)[C@H](C)[C@@H](O[C@@H]2O[C@H](C)C[C@H](N(C)C)[C@H]2O)[C@@](C)(OC)C[C@@H](C)C(=O)[C@H](C)[C@H]2NC(=O)O[C@]12C`, for which the MIC is 0.25 µg/mL (≈ 0.408 µM) in experiment [1]; above 128 µg/mL in experiment [2]; 0.06 µg/mL (≈ 0.0979 µM) in [3]; above 128 µg/mL in experiment [4]; 0.25 µg/mL (≈ 0.408 µM) in [5]; 0.06 µg/mL (≈ 0.0979 µM) in experiment [6]. For the same compound, the MIC came to 0.06 µg/mL (≈ 0.0979 µM) in experiment [7]; 0.25 µg/mL (≈ 0.408 µM) in experiment [8]; 0.12 µg/mL (≈ 0.196 µM) in experiment [9]; 16 µg/mL (≈ 26.1 µM) in experiment [10]; 64 µg/mL (≈ 104 µM) in experiment [11].
